The results in this text go back to patent US8962664B2, “Selective glycosidase inhibitors and uses thereof” (Simon Fraser University, priority 2006, dated 2015).

Format in all cases: in vivo, Sprague-Dawley rats
Data set [1] concerns tau phosphorylation levels in brain tissue. Put plainly: Decrease of rat brain tau phosphorylation levels (oral NAG-AE). To be noted: rats, 200 mg/kg/day in drinking water for one day. The procedure: The effect of oral administration of (3aR,5R,6S,7R,7aR)-2-(ethylamino)-5-(hydroxymethyl)-5,6,7,7a-tetrahydro-3aH-pyrano[3,2-d]thiazole-6,7-diol (Compound 25, NAG-AE) on tau phosphorylation levels in brain tissue in Sprague-Dawley rats was measured. All animals were obtained from Charles-River as 5-week old healthy male Sprague-Dawley rats. Animals were given one week to acclimatize and at six weeks of age the appropriate treatment was initiated. Three animals received 200 mg/kg/day of NAG-AE in their drinking water for one day. Three additional animals received drinking water containing no NAG-AE and were used as controls. Immediately following the dosing period, all animals were sacrificed and brains were removed, stored, and processed as described in Example 29.
Western Blots. Samples were separated through 10% sodium dodecyl sulfate polyacrylamide gels (SDS-PAGE) and then transferred to nitrocellulose (Bio-Rad) membranes. Membranes were then blocked for 1 h at room temperature (RT) with 1% bovine serum albumin (BSA) in PBS containing 0.1% Tween-20 (Sigma) (PBS-T) and then subsequently probed with appropriate primary antibody delivered in 1% BSA in PBS-T for either 1 h at RT or overnight at 4° C. Membranes were then extensively washed with PBS-T, blocked again for 30 min with 1% BSA in PBS-T at RT and then probed with the appropriate HRP conjugated secondary antibody for 1 h at RT delivered in 1% BSA in PBS-T. Finally, the membranes were washed extensively and then developed with SuperSignal West Pico Chemiluminesence substrate (Pierce) and exposed to CL-XPosure Film (Pierce).
Antibodies. Mouse monoclonal α-Tau-5 which recognizes the central region of tau in a phosphorylation state independent manner was purchased from Lab Vision Corporation and used at a dilution of 1:500. Rabbit polyclonal […], and α-Tau [pS^422] recognize phosphorylated Thr-231, Ser-396, and Ser-422 respectively, and were purchased from Biosource International and used at a dilution of 1:1000. Mouse monoclonal α-O-GlcNAc (CTD110.6) which recognizes the O-GlcNAc monosaccharide modification was purchased from Covance and used at a dilution of 1:2500. Mouse monoclonal α-actin (clone AC-40) was purchased from Sigma and was used at a dilution of 1:1000.

For data set [2], the system named is O-GlcNAc levels in cardiac tissue. Put plainly: Elevation of rat cardiac O-GlcNAc levels (IV). To be noted: rats, IV 50 mg/kg, 0 to 20 h, Western blot. How it is done: The effect of intravenous (IV) administration of (3aR,5R,6S,7R,7aR)-2-(ethylamino)-5-(hydroxymethyl)-5,6,7,7a-tetrahydro-3aH-pyrano[3,2-d]thiazole-6,7-diol (Compound 25, hereinafter referred to as NAG-AE) on O-GlcNAc levels in cardiac tissue in Sprague-Dawley rats was measured. Animals were obtained from Charles-River as 5-week old healthy male Sprague-Dawley rats. Animals were given one week to acclimatize and at six weeks of age the appropriate treatment was initiated. Nine animals were given intravenous tail vein injections of 50 mg/kg NAG-AE; following injection, one animal was sacrificed at each of the following time points: 0, 1, 2, 4, 7, 10, 13, 16, and 20 h. In addition, one animal was given an injection of vehicle (PBS—pH 7.4) and sacrificed two hours later for use as a control. Tissues were removed from sacrificed animals as quickly as possible to minimize post-mortem delay. The hearts from each animal were immediately frozen in liquid nitrogen and stored at −80° C. until further use. Homogenization of the cardiac tissue was carried out by manual grinding followed by homogenization in cell lysis buffer (50 mM Tris, pH 8.0, 1 mM PMSF, 0.1% NP-40, 1 mM NAG-Bt) using a tissue homogenizer (IKA) at 4° C. Insoluble cell debris was removed by centrifugation at 17,900×g for 20 minutes at 4° C. and the resulting supernatant was stored at −20° C. until use. […]

Data set [3] is described as follows: Eight-month repeat dose toxicology study in rats: general observations and organ weights. The procedure: (§1) The toxicological effects of repeated oral administration of (3aR,5R,6S,7R,7aR)-5-(hydroxymethyl)-2-propyl-5,6,7,7a-tetrahydro-3aH-pyrano[3,2-d]thiazole-6,7-diol (NAG-Bt) to Sprague-Dawley rats over eight months was measured. All animals were obtained from Charles-River as 5-week old healthy male Sprague-Dawley rats. Animals were given one week to acclimatize and at six weeks of age the appropriate treatment was initiated. Eight animals were fed food containing 100 mg/kg/day of NAG-Bt for eight months. Eight additional animals fed with food containing no inhibitor were used as controls. […] After four months of dosing, blood and urine samples were collected from four rats in each group.
At the end of eight months, all animals were sacrificed and their organs removed and weighed.

The nature of data set [4]: Eight-month repeat dose toxicology study in rats: urinalysis. How it is done: as §1
[5] abbreviates: rat, in vivo, po, 100 mg/kg/day.

Several values for one entry are separate records, joined by “and”; a condition that tells them apart may be missing. Equal values may be shown once. Entries after “also recorded” stand apart in the source; their conditions may differ.

As to `CCNC1=N[C@@H]2[C@@H](O)[C@H](O)[C@@H](CO)O[C@@H]2S1` [NAG-AE, (3aR,5R,6S,7R,7aR)-2-(ethylamino)-5-(hydroxymethyl)-5,6,7,7a-tetrahydro-3aH-pyrano[3,2-d]thiazole-6,7-diol], in data set [1] (Western blot), the “brain tau phosphorylation at Ser-396, Thr-231, and Ser-422” value is listed as “reduction; also recorded: decreases”; the “global levels of O-GlcNAc in brain” value is “increases”. Further, in data set [1] (densitometry), the “reduction of tau phosphorylation at Ser-396” value is around 3.1 fold, the “reduction of tau phosphorylation at Ser-422” value was around 1.8 fold and the “reduction of tau phosphorylation at Thr-231” value is around 2.7 fold. The “O-GlcNAc levels in cardiac tissue” value in data set [2] is recorded as “time-dependent elevation”.

`CCCC1=N[C@@H]2[C@@H](O)[C@H](O)[C@@H](CO)O[C@@H]2S1` [NAG-Bt, (3aR,5R,6S,7R,7aR)-5-(hydroxymethyl)-2-propyl-5,6,7,7a-tetrahydro-3aH-pyrano[3,2-d]thiazole-6,7-diol]: in data set [3] (setting [5]), the “body weight, food consumption, water consumption, and blood glucose levels” value is “no significant differences”; the “gross pathological abnormalities or behavioural differences” value was “No gross pathological abnormalities or behavioural differences”. Also, the “toxicological consequences of long-term dosing” value in data set [3] (rats, oral 100 mg/kg/day, eight months) is given as “no serious toxicological consequences”. Also, in data set [4] (setting [5]), the “Urine Bilirubin” value is recorded as “neg”, the “Urine Color” value is recorded as “Yellow”, the “Urine Crystals” value was “PO4” and the “Urine Crystals Amount” value was “Many”. In data set [4] (setting [5]), the “Urine Epith” value was “neg”, the “Urine Glucose” value is “neg”, the “Urine Gran Cast” value is “neg” and the “Urine Hyal cast” value is “neg”. Further, in data set [4] (setting [5]), the “Urine RBC Cast” value was “neg” and the “Urine Urobil” value was “Norm”. Further, the “Urine Bacteria” value in data set [4] (rats dosed orally for 4 months at 100 mg/kg/day, individual treated rats) was “Mod- and neg (2×)”.
